According to patent US7718704B2, “Immunosuppressant compounds and compositions” (IRM LLC, priority 2004, dated 2010):

What was measured:
[1] = system: peripheral blood lymphocytes; test: Measurement of circulating lymphocytes (blood lymphocyte depletion); assay type: in vivo, mice (C57bl/6 male); conditions: Mus musculus, mice, oral gavage, blood collected 6 and 24 hours after administration, read-out: ED50, effective dose required displaying 50% of blood lymphocyte depletion
Method: Measurements of circulating lymphocytes: Compounds are dissolved in DMSO and diluted to obtain a final concentration of 4% DMSO (v/v, final concentration) and then further diluted in a constant volume of Tween80 25%/H2O, v/v. Tween80 25%/H2O (200 μl), 4% DMSO, and FTY720 (10 μg) are included as negative and positive controls, respectively. Mice (C57bl/6 male, 6-10 week-old) are administered 250-300 μL of compound solution orally by gavages under short isoflurane anesthesia.
Blood is collected from the retro-orbital sinus 6 and 24 hours after drug administration under short isoflurane anesthesia. Whole blood samples are subjected to hematology analysis. Peripheral lymphocyte counts are determined using an automated analyzer. Subpopulations of peripheral blood lymphocytes are stained by fluorochrome-conjugated specific antibodies and analyzed using a fluorescent activating cell sorter (Facscalibur). Two mice are used to assess the lymphocyte depletion activity of each compound screened. The result is an ED50, which is defined as the effective dose required displaying 50% of blood lymphocyte depletion.

human EDG-1 = target: T1, human EDG-1 (Homo sapiens, UniProt P21453); test: EDG-1 (S1P1) GTP [γ-35S] binding assay (SPA); assay type: biochemical; conditions: membranes of CHO cells expressing human EDG-1
T1 construct: c-myc (N); expressed in transfected cells; host or cells: CHO cell clones (membrane preparation)
T1 sequence (P21453 whole entry): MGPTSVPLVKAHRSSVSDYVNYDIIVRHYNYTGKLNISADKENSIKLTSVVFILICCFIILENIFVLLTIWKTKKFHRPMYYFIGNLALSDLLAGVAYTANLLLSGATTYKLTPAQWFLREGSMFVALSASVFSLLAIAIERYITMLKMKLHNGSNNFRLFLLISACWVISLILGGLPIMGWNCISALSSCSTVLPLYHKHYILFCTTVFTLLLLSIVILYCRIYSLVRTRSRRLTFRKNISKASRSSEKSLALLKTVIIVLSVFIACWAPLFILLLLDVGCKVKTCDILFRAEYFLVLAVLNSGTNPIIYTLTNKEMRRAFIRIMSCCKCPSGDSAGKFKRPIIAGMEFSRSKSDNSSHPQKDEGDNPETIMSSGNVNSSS
Method: (§1) A. In vitro: A scintillation proximity assay (SPA) for measuring GTP [γ-^35S]binding to membranes prepared from CHO cells expressing human EDG/S1P receptors.
EDG-1 (S1P1) GTP [γ-^35S] binding assay: Membrane protein suspensions are prepared from CHO cell clones stably expressing a human EDG-1 N-terminal c-myc tag. Solution of test compounds ranging from 10 mM to 0.01 nM are prepared in DMSO/50 mM HCl and then diluted into assay buffer (20 mM HEPES, pH7.4, 100 mM NaCl, […], 0.1% fat free BSA). Assay buffer containing 10 mM GDP is mixed with wheat germ agglutinin-coated SPA-beads (1 mg/well) followed by the addition of human EDG-1 membrane protein suspension (10 μg/well) and test compound. The bead/membrane/compound assay components are then mixed for 10-15 minutes on a shaker at room temperature. GTP [γ-^35S] ([…]) and bead/membrane/compound assay mixture are added to individual wells of a 96 well Optiplate™(final volume 225 μl/well), sealed and incubated at room temperature for 110 to 120 minutes under constant shaking. After centrifugation (2000 rpm, 10 minutes) luminescence is measured with a TopCount™ instrument.
EC50 values are obtained by fitting the GTP [γ-^35S] binding curves (raw data) with the dose response curve-fitting tool of ORIGIN V. 6.1. […]

[2] = system: EDG-3, EDG-5, EDG-6 and EDG-8; test: EDG-3, -5, -6 and -8 GTP [γ-35S] binding assays (selectivity versus EDG-1); assay type: biochemical, human
Method: as §1
Concentrations of EDG receptor expressing membranes range between 13-19 μg per well.

Row | EC50 (human EDG-1) | selectivity for EDG-1 compared to one or more of the other receptors including EDG-3, EDG-5, EDG-6 and EDG-8 [2] | Compound | ED50 [1]
1 | – | – | O=C(O)C1CN(Cc2ccc3c(c2)CCC/C3=N\OCc2ccc(C3CCCCC3)c(C(F)(F)F)c2)C1 [Example 2, 1-[5-(4-Cyclohexyl-3-trifluoromethyl-benzyloxyimino)-5,6,7,8-tetrahydro-naphthalen-2-ylmethyl]-azetidine-3-carboxylic acid] | 0.2 mg/kg
2 | 0.78 nM | at least 1000 fold | O=C(O)CCNCc1ccc2c(c1)CCC/C2=N\OCc1ccc(C2CCCCC2)c(C(F)(F)F)c1 [Example 1, 3-{[5-(4-Cyclohexyl-3-trifluoromethyl-benzyloxyimino)-5,6,7,8-tetrahydro-naphthalen-2-ylmethyl]-amino}-propionic Acid] | –
